“And” between values parts separate entries of the source, which are not always exact repeats. Equal values may be shown once. No end group written: not given here.
Columns and labels:
hippocampal proteins = test: DIA quantification proteomics, hippocampus of Mdga2+/- vs WT mice; design: species or system mouse; settings: S3 Table, downregulated DEPs; for log2FC: Mdga2+/- vs WT mouse hippocampus (HET-HIP-VS-WT-HIP), SE, pvalue and adj_pvalue in own columns c3-c5; for Class: regulation class of the protein, HET-HIP-VS-WT-HIP
Procedure: The hippocampus of 1.5–2-month-old Mdga2^ +/− male mice and their WT littermate controls was collected and sent to the BGI company for DIA quantification proteomics and data analysis. Briefly, samples were lysed and sonicated. After centrifugation, the supernatant was taken for quantification. Equal amounts of proteins (100 μg) per sample were subjected to trypsin enzymatic hydrolysis. After dryness, 10 μg enzymatic peptides per sample were separated by high-pH fractionation into a total of 10 fractions using high-performance liquid chromatography (HPLC) and freeze-dried. Data-dependent acquisition (DDA) fractions and DIA samples were analyzed by nano-LC–MS/MS. DDA data was identified by Andromeda search engine within MaxQuant. Identified results were used by Spectronaut^TM for spectral library construction. For DIA data, Spectronaut^TM used the constructed spectral library information to complete deconvolution and extraction, and used the mProphet algorithm to complete analytical quality control for obtaining reliable quantitative results. The mass spectrometry proteomics data have been deposited to the ProteomeXchange Consortium via the PRIDE [62] partner repository with the dataset identifier PXD050810. DEPs between comparison groups were identified based on the quantitative results, using the fold change >1.1 and p-value <0.05 as the criteria. After retrieval from the UniProtKB database, identified DEPs were processed for GO analysis by using DAVID (https://david.ncifcrf.gov/home.jsp) and Metascape database (https://metascape.org/gp/index.html).

mice [1] = test: Self-grooming test; format: in vivo, mouse; design: Repetitive behaviors / Repetitive behaviors, Figure S4E: unit not given here; settings: for Repetitive behaviors: Figure 5D; for Repetitive behaviors / Repetitive behaviors, Figure S4E: Test2, individual animals
Procedure: (§1) Six- to eight-week-old male mice were subjected to various behavioral tests. Mice were allowed to acclimatize in the testing room for 1 h prior to each test. Data were recorded and analyzed using Smart 3.0 video tracking system (Panlab, Harvard Apparatus).
Tested mice were placed individually in a clean cage with fresh bedding. After 5 min of habituation, the spontaneous behaviors of mice were recorded for 30 min and their self-grooming behavior was analyzed.

mice [2] = test: Novel location recognition (NLR) test; format: in vivo, mouse; design: key to NLR (novel location recognition), Figure S4D: discrimination index = (T novel − T familiar)/(T novel + T familiar); settings: for NLR (novel location recognition), Figure S4D: individual animals
Procedure: as §1
This test consists of habituation, training, and testing phases. Mice were first put into the open field apparatus described above for 10 min habituation. During the training phase, mice were allowed to freely explore two identical objects placed near two opposite corners of the open field arena for 8 min. Twenty-four hour later, one of the objects was moved to be close to a third corner (N: Novel location) while the other one was kept in the same spatial position (F: Familiar location). Mice were then tested for their exploration behavior with these objects for 8 min. The discrimination index (T(N − F)/T(N + F): time spent exploring the novel location minus time spent in familiar location over time spent to both novel and familiar location) was calculated to assess the recognition memory of mice.

mice [3] = test: Social affiliation test; format: in vivo, mouse; settings: Mdga2+/- mice, 1 mg/kg i.p., 60 min, n = 10
Procedure: as §1
The test procedure was similar to that described previously. Briefly, a cylinder (8.5 cm in diameter) with a gender-matched reference mouse confined was placed at a specific location in an open field (40 cm in diameter). Tested mice were allowed to move freely in the open field for 7 min and their sniffing time with the reference mice was analyzed.

mice [4] = test: Three-chamber test (sociability and social novelty); format: in vivo, mouse; design: key to Sociability, Figure S4G: sociability index = (T_S1 - T_E)/(T_S1 + T_E), sniffing time; key to Social novelty, Figure S4G: social novelty index = (T_S2 - T_S1)/(T_S2 + T_S1), sniffing time; settings: for Sociability, Figure S4G / Social novelty, Figure S4G: individual animals
Procedure: as §1
This test was performed as described previously with minor modifications. The apparatus (60 W × 40 D × 22 H cm) has two transparent partitions separating the left, the middle, and the right chambers (20 × 40 cm each), and each partition has a small opening (5 × 5 cm) for access to each chamber. A fixed wire cylinder (8.5 cm diameter) was placed in each of the left and the right chambers. This test consisted of three phases: habituation, sociability test, and social novelty test. During habituation, both left and right cylinders were empty, and tested mice were placed in the center and allowed to explore freely for 10 min. During the sociability test, a gender-matched strange mouse (S1) was enclosed in one empty cylinder, and mice were allowed to freely explore for 10 min. Their time spent sniffing S1 or the other empty cylinder (E) was measured and the sociability preference index (T(S1 − -E)/T(S1 + E): time spent sniffing S1 minus time spent sniffing E over time spent sniffing both S1 and E) was calculated for comparison. During the social novelty test, another gender-matched unfamiliar mouse (S2) was placed into the empty cylinder and mice were allowed to freely explore for another 10 min. Their time spent sniffing S1 or S2 was measured and the social novelty preference index (T(S2 − S1)/T(S2 + S1): time spent sniffing S2 minus time spent sniffing S1 over time spent sniffing both S2 and S1) was calculated for comparison.

human TrkB protein = test: GST pull-down of purified human TrkB with MDGA2 fragments; format: binding; settings: in vitro, GST-tagged fragments
Procedure: Full-length human TrkB or MDGA2 cDNA was cloned into the pcDNA6-His vector. TrkB and MDGA2 proteins were expressed in HEK293T cells and then purified using a His-tag Protein Purification Kit (Beyotime, Cat# P2229S).
GST pull-down: GST-fused MDGA2 fragments (L1: MDGA2 aa 746−786; L2: MDGA2 aa 787−833) were expressed in bacteria and purified using Glutathione Sepharose 4B (GE Healthcare, Cat# 17-0756-01). Purified human TrkB protein was incubated with GST-fused MDGA2-L1, MDGA2-L2, or GST proteins and then pulled down with Glutathione Sepharose 4B.

mice [5] = test: Open field test; format: in vivo, mouse; design: OFT (open field test), Figure S4C: unit not given here; settings: individual animals;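 further: values are total travel distance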
Procedure: as §1
Mice were gently placed in the center of an open field apparatus (40 × 40 × 40 cm), and allowed for a 10-min period of free movement. Total distance traveled and time spent in center were analyzed.

[6] = Mdga2+/- mice, 1 mg/kg i.p., 60 min, n = 10

Molecule: sp¦Q0VGY8¦TANC1_MOUSE
- log2FC (hippocampal proteins): -2.363
- Class (hippocampal proteins): Down

Molecule: sp¦Q80YX1¦TENA_MOUSE
- log2FC (hippocampal proteins): -1.6471
- Class (hippocampal proteins): Down

Molecule: sp¦P97433¦ARG28_MOUSE
- log2FC (hippocampal proteins): -1.853
- Class (hippocampal proteins): Down

Molecule: CCN(CC)Cc1cccc(/C=C/c2nc3ccc(F)cc3c(=O)n2-c2ccccc2Cl)n1 [CP-465022, reference compound]
- repetitive self-grooming behavior (mice [1]; [6]): without affecting social novelty, recognition memory, and repetitive self-grooming behavior
- recognition memory (mice [2]; [6]): without affecting social novelty, recognition memory
- social affiliation (mice [3]): rapidly promoted social affiliation
- sociability (mice [4]; [6]): rapidly promoted social affiliation and sociability
- social novelty (mice [4]; [6]): without affecting social novelty

Molecule: L1: GST-fused MDGA2 fragment aa 746−786 (FHCGFEDGNICLFTQDDTDNFDWTKQSTATRNTKYTPNTGP; cysteine pairing not given here; also: GST-fused)
- interaction with TrkB (GST pull-down) (human TrkB protein): not GST-tagged L1 interacted with TrkB

Molecule: L2: GST-fused MDGA2 fragment aa 787−833 (NADRSGSKEGFYMYIETSRPRLEGEKARLLSPVFSIAPKNPYGPTNT; also: GST-fused)
- interaction with TrkB (GST pull-down) (human TrkB protein): interacted with TrkB

Molecule: O=C(Nc1ccccc1C(=O)NC1CCCCNC1=O)c1cc2ccccc2s1 (stereo not shown) [ANA12]
- Repetitive behaviors (mice [1]; Het+ANA12): 19 and 17 and 36 and 33 and 26 and 14 and 10 and 20 and 12 and 38 and 29 and 30 and 22 and 16
- Repetitive behaviors (mice [1]; WT+ANA12): 32 and 20 and 14 and 10 and 7 and 25 and 9 and 18 and 8 and 11 and 13
- Repetitive behaviors, Figure S4E (mice [1]; Het+ANA12): 15 and 19 and 11 and 20 and 12 and 38 and 30 and 29 and 18 and 13 and 26 and 32 and 22 and 35
- Repetitive behaviors, Figure S4E (mice [1]; WT+ANA12): 12 and 22 and 6 and 30 and 5 and 14 and 8 and 18 and 10 and 16 and 9 and 20 and 17 and 11
- NLR (novel location recognition), Figure S4D (mice [2]; Het+ANA12, Test1): -0.13 and 0.49 and 0.11 and 0.03 and 0.36 and -0.0741 and 0.20 and 0.55 and 0.14 and 0.51 and 0.0439 and 0.0756 and 0.45 and 0.32 and -0.03
- NLR (novel location recognition), Figure S4D (mice [2]; Het+ANA12, Test2): 0.15 and 0.00112 and 0.11 and 0.43 and 0.18 and -0.10 and 0.51 and 0.26 and -0.18 and 0.30 and 0.00129 and 0.14 and -0.04
- NLR (novel location recognition), Figure S4D (mice [2]; WT+ANA12, Test1): 0.36 and 0.47 and 0.12 and 0.06 and 0.23 and 0.50 and 0.35 and 0.32 and -0.035 and 0.43 and 0.37 and -0.09 and 0.25 and 0.51 and -0.07
- NLR (novel location recognition), Figure S4D (mice [2]; WT+ANA12, Test2): -0.05 and 0.41 and 0.35 and 0.09 and 0.46 and -0.12 and 0.53 and 0.45 and 0.17 and 0.20 and -0.17 and 0.62 and 0.54
- Sociability, Figure S4G (mice [4]; Het+ANA12, Test1): 0.42 and 0.0153 and 0.50 and 0.46 and 0.24 and 0.59 and 0.23 and -0.06 and 0.14 and 0.34 and 0.26 and 0.0119 and 0.40
- Social novelty, Figure S4G (mice [4]; Het+ANA12, Test1): 0.24 and 0.45 and 0.21 and -0.09 and -0.20 and 0.40 and 0.11 and -0.13 and 0.0948 and 0.000711 and 0.03 and 0.09 and 0.14 and 0.35
- Sociability, Figure S4G (mice [4]; Het+ANA12, Test2): 0.33 and -0.13 and 0.40 and 0.15 and 0.02 and -0.01 and 0.31 and 0.35 and 0.08 and 0.17 and 0.12 and 0.27 and -0.04 and -0.19 and 0.54
- Social novelty, Figure S4G (mice [4]; Het+ANA12, Test2): 0.15 and -0.17 and 0.23 and 0.32 and 0.18 and 0.16 and 0.44 and -0.13 and 0.0424 and -0.07 and 0.41 and -0.0144 and 0.06 and 0.0317 and 0.11
- Sociability, Figure S4G (mice [4]; WT+ANA12, Test1): 0.72 and 0.46 and 0.41 and 0.66 and 0.61 and 0.33 and 0.44 and 0.36 and 0.55 and -0.10 and 0.22 and -0.13 and 0.11
- Social novelty, Figure S4G (mice [4]; WT+ANA12, Test1): 0.05 and 0.43 and 0.53 and -0.13 and 0.39 and 0.40 and 0.32 and 0.62 and 0.44 and 0.33 and -0.01 and 0.18 and 0.61 and -0.10
- Sociability, Figure S4G (mice [4]; WT+ANA12, Test2): 0.39 and 0.66 and 0.10 and -0.24 and 0.51 and 0.65 and 0.38 and 0.48 and 0.50 and 0.31 and 0.54 and 0.29 and 0.71 and 0.09 and 0.47
- Social novelty, Figure S4G (mice [4]; WT+ANA12, Test2): -0.06 and 0.16 and 0.50 and 0.26 and 0.08 and 0.12 and 0.42 and 0.30 and 0.55 and 0.58 and 0.27 and 0.11 and 0.33
- OFT (open field test), Figure S4C (mice [5]; Het+ANA12, Test1): 39.1 and 38.5 and 30.9 and 34.7 and 41.8 and 45.2 and 48.5 and 34.6 and 26.5
- OFT (open field test), Figure S4C (mice [5]; Het+ANA12, Test2): 19.1 and 38.5 and 35 and 43.1 and 30.9 and 22 and 39 and 30.4 and 45.6 and 31.5 and 29.6 and 25.1 and 49.6 and 27.8 and 28.2
- OFT (open field test), Figure S4C (mice [5]; WT+ANA12, Test1): 46.5 and 20.6 and 31.2 and 41.8 and 24 and 27.1 and 44.6 and 35 and 26.6 and 21.8 and 34.8 and 37 and 41.1 and 19.1 and 26.9
- OFT (open field test), Figure S4C (mice [5]; WT+ANA12, Test2): 43.3 and 20.5 and 26 and 46 and 26.1 and 37.1 and 47.7 and 21.2 and 24.6 and 27.2 and 22 and 34.1 and 17 and 29.8 and 32.4

Molecule: sp¦P27038¦AVR2A_MOUSE
- log2FC (hippocampal proteins): -1.635
- Class (hippocampal proteins): Down

Molecule: sp¦Q91WG7¦DGKG_MOUSE
- log2FC (hippocampal proteins): -3.157
- Class (hippocampal proteins): Down

Molecule: sp¦Q3UQ44¦IQGA2_MOUSE
- log2FC (hippocampal proteins): -1.377
- Class (hippocampal proteins): Down

Molecule: sp¦A2A791¦ZMYM4_MOUSE
- log2FC (hippocampal proteins): -2.935
- Class (hippocampal proteins): Down

Molecule: sp¦A2AF47¦DOC11_MOUSE
- log2FC (hippocampal proteins): -1.478
- Class (hippocampal proteins): Down
